Results reported in patent US9125849B2, “TOMM34 peptides and vaccines including the same” (ONCOTHERAPY SCIENCE, INC., priority 2010, dated 2015).
Non-standard residues stand in square brackets, D forms with d. No end group written: not given here.

Assays:
peptide-pulsed T2 cells [1] = assay: In vitro CTL induction, IFN-gamma ELISPOT assay; type: cell-based, human; details: CTLs induced with peptide-pulsed DCs from HLA-A*0201 positive donor, vs target cells not pulsed with peptide
Text: Monocyte-derived dendritic cells (DCs) were used as antigen-presenting cells to induce cytotoxic T lymphocyte (CTL) responses against peptides presented on human leukocyte antigen (HLA). DCs were generated in vitro as described elsewhere (Nakahara S et al., Cancer Res 2003 Jul. 15, 63(14): 4112-8). Specifically, peripheral blood mononuclear cells isolated from a normal volunteer (HLA-A*0201 positive) by Ficoll-Paque plus (Pharmacia) solution were separated by adherence to a plastic tissue culture dish (Becton Dickinson) so as to enrich them as the monocyte fraction. The monocyte-enriched population was cultured in the presence of 1000 U/ml of granulocyte-macrophage colony-stimulating factor (R&D System) and 1000 U/ml of interleukin (IL)-4 (R&D System) in AIM-V Medium (Invitrogen) containing 2% heat-inactivated autologous serum (AS). After 7 days of culture, the cytokine-induced DCs were pulsed with 20 micro-g/ml of each of the synthesized peptides in the presence of 3 micro-g/ml of beta 2-microglobulin for 3 hr at 37 degrees C. in AIM-V Medium. The generated cells appeared to express DC-associated molecules, such as CD80, CD83, CD86 and HLA class II, on their cell surfaces (data not shown). These peptide-pulsed DCs were then inactivated by X ray-irradiated (20 Gy) and mixed at a 1:20 ratio with autologous CD8+ T cells, obtained by positive selection with CD8 Positive Isolation Kit (Dynal). These cultures were set up in 48-well plates (Corning); each well contained 1.5×10^4 peptide-pulsed DCs, 3×10^5 CD8+ T cells and 10 ng/ml of IL-7 (R&D System) in 0.5 ml of AIM-V/2% AS medium. Three days later, these cultures were supplemented with IL-2 (CHIRON) to a final concentration of 20 IU/ml. On day 7 and 14, the T cells were further stimulated with the autologous peptide-pulsed DCs. The DCs were prepared each time by the same way described above. CTL was tested against peptide-pulsed T2 cells after the 3rd round of peptide stimulation on day 21 (Tanaka H et al., Br J Cancer 2001 Jan. 5, 84(1): 94-9; Umano Y et al., Br J Cancer 2001 Apr. 20, 84(8): 1052-7; Uchida N et al., Clin Cancer Res 2004 Dec. 15, 10(24): 8577-86; Suda T et al., Cancer Sci 2006 May, 97(5): 411-9; Watanabe T et al., Cancer Sci 2005 August, 96(8): 498-506).
(§1) Peptide-pulsed T2 (1×10^4/well) was prepared as stimulator cells. Cultured cells in 48 wells were used as responder cells. IFN-gamma ELISPOT assay and IFN-gamma ELISA assay were performed under manufacture procedure.

peptide-pulsed T2 cells [2] = assay: CTL line activity, IFN-gamma ELISA; type: cell-based, human; details: CTL line stimulated with peptide; target cells pulsed with peptide vs without peptide pulse
Description: CTLs were expanded in culture using the method similar to the one described by Riddell et al. (Walter E A et al., N Engl J Med 1995 Oct. 19, 333(16): 1038-44; Riddell S R et al., Nat Med 1996 February, 2(2): 216-23). A total of 5×10^4 CTLs were suspended in 25 ml of AIM-V/5% AS medium with 2 kinds of human B-lymphoblastoid cell lines, inactivated by Mitomycin C, in the presence of 40 ng/ml of anti-CD3 monoclonal antibody (Pharmingen). One day after initiating the cultures, 120 IU/ml of IL-2 were added to the cultures. The cultures were fed with fresh AIM-V/5% AS medium containing 30 IU/ml of IL-2 on days 5, 8 and 11 (Tanaka H et al., Br J Cancer 2001 Jan. 5, 84(1): 94-9; Umano Y et al., Br J Cancer 2001 Apr. 20, 84(8): 1052-7; Uchida N et al., Clin Cancer Res 2004 Dec. 15, 10(24): 8577-86; Suda T et al., Cancer Sci 2006 May, 97(5): 411-9; Watanabe T et al., Cancer Sci 2005 August, 96(8): 498-506).
as §1

peptide-pulsed T2 cells [3] = assay: CTL clone activity, IFN-gamma ELISA; type: cell-based, human; details: CTL clone established by limiting dilution from the CTL line; target cells pulsed with peptide; listed as TOMM34-A02-9-30
Description: The dilutions were made to have 0.3, 1, and 3 CTLs/well in 96 round-bottomed micro titer plate (Nalge Nunc International). CTLs were cultured with 1×10^4 cells/well of 2 kinds of human B-lymphoblastoid cell lines, 30 ng/ml of anti-CD3 antibody, and 125 U/ml of IL-2 in a total of […] of AIM-V Medium containing 5% AS. 50 micro-1/well of IL-2 were added to the medium 10 days later so to reach a final concentration of 125 U/ml IL-2. CTL activity was tested on the 14th day, and CTL clones were expanded using the same method as described above (Uchida N et al., Clin Cancer Res 2004 Dec. 15, 10(24): 8577-86; Suda T et al., Cancer Sci 2006 May, 97(5): 411-9; Watanabe T et al., Cancer Sci 2005 August, 96(8): 498-506).
as §1

[4] = tested on: COS7 cells transfected with both TOMM34 and HLA-A*0201; assay: Specific CTL activity against target cells expressing TOMM34 and HLA-A*0201; type: cell-based, African green monkey; details: COS7 cells expressing both TOMM34 and HLA-A*0201; listed as TOMM34-A02-9-30
Text: (§2) The cDNA encoding an open reading frame of target genes or HLA-A*0201 was amplified by PCR. The PCR-amplified product was cloned into expression vector. The plasmids were transfected into COS7, which is the target genes and HLA-A*0201-null cell line, using lipofectamine 2000 (Invitrogen) according to the manufacturer's recommended procedures. After 2 days from transfection, the transfected cells were harvested with versene (Invitrogen) and used as the stimulator cells (5×10^4 cells/well) for CTL activity assay.
(§3) The established CTL line raised against TOMM34-A02-9-30 (SEQ ID NO: 1) peptide was examined for the ability to recognize target cells that express TOMM34 and HLA-A*0201 molecule. COS7 cells transfected with both the full length of TOMM34 and HLA-A*0201 gene (a specific model for the target cells that express TOMM34 and HLA-A*0201 gene) were prepared as stimulator cells, and COS7 cells transfected with either full length of TOMM34 or HLA-A*0201 were used as the controls.

[5] = tested on: COS7 cells transfected with either full length of TOMM34 or HLA-A*0201; assay: Specific CTL activity against control target cells; type: cell-based, African green monkey; details: control COS7 cells expressing either HLA-A*0201 or TOMM34
Text: as §2, §3

## ALYGRALRV [SEQ ID NO: 1]
peptide-pulsed T2 cells [1]
  peptide specific CTL activity (IFN-gamma production) by IFN-gamma ELISPOT: potent IFN-gamma production
peptide-pulsed T2 cells [2]
  IFN-gamma production of the CTL line by IFN-gamma ELISA: potent IFN-gamma production
peptide-pulsed T2 cells [3]
  IFN-gamma production of the CTL clone by IFN-gamma ELISA: potent IFN-gamma production
[4]
  specific CTL activity of the CTL line: potent CTL activity
[5]
  specific CTL activity of the CTL line: no significant specific CTL activity was detected

## ALYGrALRVL (ALYG[code r]ALRVL; not fully specified; printed as ALYGrALRVL) [SEQ ID NO: 31]
peptide-pulsed T2 cells [1]
  peptide specific CTL activity (IFN-gamma production) by IFN-gamma ELISPOT: potent IFN-gamma production

## KLPSiPLVPV (KLPS[code i]PLVPV; not fully specified; printed as KLPSiPLVPV) [SEQ ID NO: 21]
peptide-pulsed T2 cells [1]; listed as TOMM34-A02-10-143
  peptide specific CTL activity (IFN-gamma production) by IFN-gamma ELISPOT: specific IFN-gamma production was not observed

## LLCSNLESA [SEQ ID NO: 5]
peptide-pulsed T2 cells [1]
  peptide specific CTL activity (IFN-gamma production) by IFN-gamma ELISPOT: potent IFN-gamma production

## LLCSnLESAT (LLCS[code n]LESAT; not fully specified; printed as LLCSnLESAT) [SEQ ID NO: 32]
peptide-pulsed T2 cells [1]
  peptide specific CTL activity (IFN-gamma production) by IFN-gamma ELISPOT: potent IFN-gamma production
